Assay results published in ChEMBL document CHEMBL4387706, “Discovery of Novel Spiroindoline Derivatives as Selective Tankyrase Inhibitors” (J Med Chem, 2019).

Key:
[1] = target: D(2) dopamine receptor (Homo sapiens) (UniProt P14416); experiment: Displacement of [3H]spiperone from full-length recombinant human D2S receptor expressed in CHO cells at 10 uM measured after 120 mins by scintillation counting method relative to control; type: cell-based
[2] = target: Histamine H2 receptor (Homo sapiens) (UniProt P25021); experiment: Displacement of [125I]aminopotentidine from full-length recombinant human H2 receptor expressed in CHOK1 cells at 10 uM measured after 120 mins by scintillation counting method relative to control; type: cell-based
[3] = target: Sodium-dependent dopamine transporter (Homo sapiens) (UniProt Q01959); experiment: Displacement of [125I]RTI-55 from full-length recombinant human DAT receptor expressed in CHOS cells at 10 uM measured after 3 hrs by scintillation counting method relative to control; type: cell-based
[4] = target: Muscarinic acetylcholine receptor M2 (Homo sapiens) (UniProt P08172); experiment: Displacement of [3H]N-Methylscopolamine from full-length recombinant human M2 receptor expressed in CHOK1 cells at 10 uM measured after 120 mins by scintillation counting method relative to control; type: cell-based
[5] = target: Beta-1 adrenergic receptor (Homo sapiens) (UniProt P08588); experiment: Displacement of [125I]cyanopindolol from full-length recombinant human beta1 receptor expressed in CHOK1 cells at 10 uM measured after 120 mins by scintillation counting method relative to control; type: cell-based
COLO 320DM = experiment: Antiproliferative activity against human COLO320DM cells assessed inhibition of cell growth measured after 5 days by MTT assay; type: functional; settings: 120 h
[6] = target: T1, Poly [ADP-ribose] polymerase tankyrase-2 (Homo sapiens, UniProt Q9H2K2)
T1 sequence (Q9H2K2 whole entry): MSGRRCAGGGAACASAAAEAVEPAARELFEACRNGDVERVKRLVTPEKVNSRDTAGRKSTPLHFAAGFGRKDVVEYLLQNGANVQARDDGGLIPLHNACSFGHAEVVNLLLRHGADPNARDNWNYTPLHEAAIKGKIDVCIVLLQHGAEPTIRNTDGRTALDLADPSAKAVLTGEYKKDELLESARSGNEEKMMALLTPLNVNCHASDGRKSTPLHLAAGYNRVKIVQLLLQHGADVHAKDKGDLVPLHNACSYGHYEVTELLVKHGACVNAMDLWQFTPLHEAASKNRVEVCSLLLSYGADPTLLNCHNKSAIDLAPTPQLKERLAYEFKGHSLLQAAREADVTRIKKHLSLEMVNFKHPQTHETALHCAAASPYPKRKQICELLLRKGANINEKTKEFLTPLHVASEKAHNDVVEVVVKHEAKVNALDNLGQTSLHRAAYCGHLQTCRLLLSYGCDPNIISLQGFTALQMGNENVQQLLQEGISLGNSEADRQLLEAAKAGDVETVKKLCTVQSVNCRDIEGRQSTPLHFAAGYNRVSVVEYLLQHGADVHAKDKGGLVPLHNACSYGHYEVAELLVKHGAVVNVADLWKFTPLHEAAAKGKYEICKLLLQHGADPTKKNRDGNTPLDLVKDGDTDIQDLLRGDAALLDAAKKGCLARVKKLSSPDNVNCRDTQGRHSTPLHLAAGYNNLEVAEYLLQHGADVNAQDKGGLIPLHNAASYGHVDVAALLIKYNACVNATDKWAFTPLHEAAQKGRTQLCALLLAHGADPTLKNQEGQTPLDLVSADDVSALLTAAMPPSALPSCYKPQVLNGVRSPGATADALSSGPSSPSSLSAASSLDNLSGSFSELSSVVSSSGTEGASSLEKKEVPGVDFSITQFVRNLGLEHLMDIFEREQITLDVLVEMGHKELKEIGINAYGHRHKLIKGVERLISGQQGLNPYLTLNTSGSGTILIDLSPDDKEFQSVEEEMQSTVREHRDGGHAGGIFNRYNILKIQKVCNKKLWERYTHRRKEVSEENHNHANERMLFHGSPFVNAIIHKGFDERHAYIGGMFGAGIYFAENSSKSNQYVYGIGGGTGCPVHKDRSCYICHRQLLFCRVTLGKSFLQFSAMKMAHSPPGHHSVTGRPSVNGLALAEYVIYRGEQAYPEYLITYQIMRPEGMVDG
Description: Inhibition of recombinant human N-terminal TEV cleavage site-fused/FLAG-poly his-tagged TNKS2 SAM-PARP domain (613 to 1166 residues) expressed in Escherichia coli assessed as reduction in auto-PARylation preincubated for 10 mins followed by biotinylated-NAD+ addition and measured after 45 mins by ELISA

Tankyrase 1/2 = target: T2, Tankyrase 1/2 (Homo sapiens, UniProt Q9H2K2+O95271)
T2 sequence (Q9H2K2 whole entry): T1 sequence (Q9H2K2 whole entry)
T2 sequence (O95271 whole entry): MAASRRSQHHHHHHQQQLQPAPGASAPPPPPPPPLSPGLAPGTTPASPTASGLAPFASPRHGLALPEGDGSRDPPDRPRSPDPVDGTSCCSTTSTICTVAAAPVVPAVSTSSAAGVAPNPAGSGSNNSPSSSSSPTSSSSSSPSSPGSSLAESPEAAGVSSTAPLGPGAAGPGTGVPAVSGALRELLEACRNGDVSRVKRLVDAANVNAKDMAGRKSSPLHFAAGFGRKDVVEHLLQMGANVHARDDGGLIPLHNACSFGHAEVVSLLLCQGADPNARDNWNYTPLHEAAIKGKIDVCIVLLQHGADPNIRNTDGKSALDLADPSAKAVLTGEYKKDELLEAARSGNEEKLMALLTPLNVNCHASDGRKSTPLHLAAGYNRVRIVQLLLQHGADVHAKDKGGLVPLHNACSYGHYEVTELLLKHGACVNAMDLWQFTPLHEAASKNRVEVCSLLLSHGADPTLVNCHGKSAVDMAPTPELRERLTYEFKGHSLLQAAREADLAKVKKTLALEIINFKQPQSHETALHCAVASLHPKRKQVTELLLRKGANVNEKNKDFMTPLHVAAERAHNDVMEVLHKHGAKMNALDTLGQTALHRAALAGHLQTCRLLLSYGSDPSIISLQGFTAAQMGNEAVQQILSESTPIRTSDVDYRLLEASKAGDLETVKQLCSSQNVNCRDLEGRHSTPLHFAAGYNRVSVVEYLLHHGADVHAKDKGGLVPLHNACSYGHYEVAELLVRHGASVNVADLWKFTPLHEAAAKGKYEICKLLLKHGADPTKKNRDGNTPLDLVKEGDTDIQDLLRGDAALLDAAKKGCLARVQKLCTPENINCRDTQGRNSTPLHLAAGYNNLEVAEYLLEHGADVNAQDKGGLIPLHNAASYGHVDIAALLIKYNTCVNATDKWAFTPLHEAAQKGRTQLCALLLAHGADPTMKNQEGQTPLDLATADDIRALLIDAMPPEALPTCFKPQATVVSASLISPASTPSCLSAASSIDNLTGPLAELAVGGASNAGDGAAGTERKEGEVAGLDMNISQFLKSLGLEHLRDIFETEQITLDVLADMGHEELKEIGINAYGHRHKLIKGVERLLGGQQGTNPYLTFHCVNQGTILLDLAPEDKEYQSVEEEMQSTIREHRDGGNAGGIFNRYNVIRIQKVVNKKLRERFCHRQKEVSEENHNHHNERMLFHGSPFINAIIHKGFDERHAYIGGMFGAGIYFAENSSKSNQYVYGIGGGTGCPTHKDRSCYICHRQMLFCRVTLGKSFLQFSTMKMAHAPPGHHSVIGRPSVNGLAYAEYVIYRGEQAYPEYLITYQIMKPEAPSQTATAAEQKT
Description: Inhibition of TNKS/TNKS2 (unknown origin) expressed in human DLD1 cells assessed as reduction in Wnt-signaling measured after 24 hrs by TCF-luciferase reporter gene assay

Sequence of D(2) dopamine receptor (Homo sapiens) (P14416 whole entry): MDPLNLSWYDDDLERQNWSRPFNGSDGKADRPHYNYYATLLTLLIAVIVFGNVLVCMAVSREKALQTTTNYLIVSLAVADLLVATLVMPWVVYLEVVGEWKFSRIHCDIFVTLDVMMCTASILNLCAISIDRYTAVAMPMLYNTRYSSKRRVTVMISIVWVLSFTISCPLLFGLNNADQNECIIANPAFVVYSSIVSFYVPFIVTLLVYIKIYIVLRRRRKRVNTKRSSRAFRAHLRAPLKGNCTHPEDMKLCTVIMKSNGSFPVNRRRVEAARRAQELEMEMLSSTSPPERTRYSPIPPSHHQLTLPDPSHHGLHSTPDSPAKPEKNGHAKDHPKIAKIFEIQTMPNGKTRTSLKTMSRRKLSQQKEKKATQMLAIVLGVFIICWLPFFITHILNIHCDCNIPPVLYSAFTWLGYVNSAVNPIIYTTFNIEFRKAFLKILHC
Sequence of Muscarinic acetylcholine receptor M2 (Homo sapiens) (P08172 whole entry): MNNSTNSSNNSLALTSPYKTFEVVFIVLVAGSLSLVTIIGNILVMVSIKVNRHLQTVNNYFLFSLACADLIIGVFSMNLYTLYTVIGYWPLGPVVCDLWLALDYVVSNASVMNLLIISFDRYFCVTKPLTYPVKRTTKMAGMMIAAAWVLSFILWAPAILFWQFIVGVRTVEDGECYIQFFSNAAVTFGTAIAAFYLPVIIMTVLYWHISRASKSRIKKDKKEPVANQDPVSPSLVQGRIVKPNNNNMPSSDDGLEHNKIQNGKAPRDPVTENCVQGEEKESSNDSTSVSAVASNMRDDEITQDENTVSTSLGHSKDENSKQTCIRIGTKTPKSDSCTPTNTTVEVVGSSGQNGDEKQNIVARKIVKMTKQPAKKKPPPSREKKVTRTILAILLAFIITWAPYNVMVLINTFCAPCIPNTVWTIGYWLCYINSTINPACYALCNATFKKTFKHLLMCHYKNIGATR
Sequence of Sodium-dependent dopamine transporter (Homo sapiens) (Q01959 whole entry): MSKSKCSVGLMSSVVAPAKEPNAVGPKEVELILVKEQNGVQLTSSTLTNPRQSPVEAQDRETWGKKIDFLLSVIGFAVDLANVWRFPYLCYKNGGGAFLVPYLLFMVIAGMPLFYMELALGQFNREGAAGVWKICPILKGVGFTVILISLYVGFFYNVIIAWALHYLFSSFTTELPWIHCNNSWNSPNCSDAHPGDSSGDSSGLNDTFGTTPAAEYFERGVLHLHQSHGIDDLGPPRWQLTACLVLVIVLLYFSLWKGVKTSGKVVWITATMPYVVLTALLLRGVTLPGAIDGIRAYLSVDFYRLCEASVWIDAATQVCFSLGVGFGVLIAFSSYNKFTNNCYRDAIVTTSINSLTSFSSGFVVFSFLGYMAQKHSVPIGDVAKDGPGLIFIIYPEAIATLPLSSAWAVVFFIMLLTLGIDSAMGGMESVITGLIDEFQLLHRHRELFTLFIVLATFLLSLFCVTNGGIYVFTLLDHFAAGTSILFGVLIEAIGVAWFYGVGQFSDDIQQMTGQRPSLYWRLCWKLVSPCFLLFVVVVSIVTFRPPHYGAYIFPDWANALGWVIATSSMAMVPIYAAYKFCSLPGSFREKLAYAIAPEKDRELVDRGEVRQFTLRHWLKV
Sequence of Beta-1 adrenergic receptor (Homo sapiens) (P08588 whole entry, looked up): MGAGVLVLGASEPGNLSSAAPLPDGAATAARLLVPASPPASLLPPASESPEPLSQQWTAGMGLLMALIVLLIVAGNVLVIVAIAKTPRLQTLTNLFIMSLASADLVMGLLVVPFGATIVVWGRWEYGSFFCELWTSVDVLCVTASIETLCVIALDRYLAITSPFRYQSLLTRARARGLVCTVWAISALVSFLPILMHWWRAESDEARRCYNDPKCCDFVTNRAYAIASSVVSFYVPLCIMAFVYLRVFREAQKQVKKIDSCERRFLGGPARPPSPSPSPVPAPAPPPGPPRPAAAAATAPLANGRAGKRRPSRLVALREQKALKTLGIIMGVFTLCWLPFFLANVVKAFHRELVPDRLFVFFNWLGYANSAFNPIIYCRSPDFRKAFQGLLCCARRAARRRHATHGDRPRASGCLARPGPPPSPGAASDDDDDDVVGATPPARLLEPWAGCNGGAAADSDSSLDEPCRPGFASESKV
Sequence of Histamine H2 receptor (Homo sapiens) (P25021 whole entry): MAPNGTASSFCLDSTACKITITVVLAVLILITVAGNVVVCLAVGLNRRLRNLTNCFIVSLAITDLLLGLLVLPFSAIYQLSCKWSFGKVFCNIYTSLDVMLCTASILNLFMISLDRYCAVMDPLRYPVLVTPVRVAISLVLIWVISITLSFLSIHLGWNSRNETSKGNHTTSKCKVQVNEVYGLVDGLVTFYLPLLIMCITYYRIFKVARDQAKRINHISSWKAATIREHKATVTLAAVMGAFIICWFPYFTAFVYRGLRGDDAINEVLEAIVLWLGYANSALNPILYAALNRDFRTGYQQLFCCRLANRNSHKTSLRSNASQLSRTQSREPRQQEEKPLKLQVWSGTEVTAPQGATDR

## O=c1[nH]c(N2CCC3(CC2)CN(CCO)c2cc(F)cc(F)c23)nc2c1CCCC2
[1]
  inhibition: > 20%
[2]
  inhibition: > 20%
[3]
  inhibition: > 20%
[4]
  inhibition: > 20%
[5]
  inhibition: > 20%

## COc1ccccc1N1CCN(c2nc3c(c(=O)[nH]2)CCCC3)CC1
COLO 320DM
  GI50: 1820 nM
[6]
  IC50: 19.4 nM
Tankyrase 1/2
  IC50: 233 nM
